≈ marks a conversion by molar mass, not a printed value.
How the values were obtained:
[1] = target: T1, Nuclear receptor subfamily 1 group I member 2 (Homo sapiens, UniProt O75469); test: Activation of human PXR
T1 sequence (O75469 whole entry): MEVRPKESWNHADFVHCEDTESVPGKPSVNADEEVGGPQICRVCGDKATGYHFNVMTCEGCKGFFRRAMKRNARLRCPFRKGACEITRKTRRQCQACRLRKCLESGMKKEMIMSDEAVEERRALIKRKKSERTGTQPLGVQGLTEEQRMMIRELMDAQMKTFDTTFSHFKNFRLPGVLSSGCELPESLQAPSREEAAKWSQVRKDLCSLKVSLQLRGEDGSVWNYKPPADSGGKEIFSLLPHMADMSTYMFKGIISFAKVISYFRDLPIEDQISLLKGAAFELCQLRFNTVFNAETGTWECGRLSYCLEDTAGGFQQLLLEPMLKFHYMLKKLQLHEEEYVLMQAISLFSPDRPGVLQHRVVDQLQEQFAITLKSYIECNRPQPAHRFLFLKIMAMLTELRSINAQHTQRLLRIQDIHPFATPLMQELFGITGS

Cytochrome P450 2D6 = Cytochrome P450 2D6 (Homo sapiens, UniProt P10635)
Chain of Cytochrome P450 2D6 (P10635 whole entry): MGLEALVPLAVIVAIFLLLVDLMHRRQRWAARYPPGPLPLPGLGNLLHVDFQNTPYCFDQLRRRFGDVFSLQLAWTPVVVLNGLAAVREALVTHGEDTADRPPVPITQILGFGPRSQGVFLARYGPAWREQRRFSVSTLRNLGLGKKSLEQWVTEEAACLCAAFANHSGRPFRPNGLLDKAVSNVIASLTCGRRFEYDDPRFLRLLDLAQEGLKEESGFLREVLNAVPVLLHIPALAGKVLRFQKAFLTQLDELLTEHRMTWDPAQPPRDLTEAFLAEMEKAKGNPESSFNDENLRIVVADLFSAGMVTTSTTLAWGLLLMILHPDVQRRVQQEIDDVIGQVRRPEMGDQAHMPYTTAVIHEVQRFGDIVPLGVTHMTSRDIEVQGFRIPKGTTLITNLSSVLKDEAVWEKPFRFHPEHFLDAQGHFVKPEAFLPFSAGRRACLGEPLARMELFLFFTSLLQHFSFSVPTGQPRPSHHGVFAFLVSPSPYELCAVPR
Description: Inhibition of human CYP2D6 after 10 mins

[2] = Blood clearance in cynomolgus monkey at 0.125 mg/kg, iv and 0.5 mg/kg, po; type: ADME, organism-based, Macaca fascicularis
[3] = Blood clearance in Beagle dog at 0.125 mg/kg, iv and 0.5 mg/kg, po; type: ADME, organism-based, Canis lupus familiaris
Rattus norvegicus = test: Antiamnesic activity in po dosed assessed as inhibition of Scopolamine-induced amnesic deficit administered 3 hrs before Scopolamine challenge by step-down passive avoidance test; type: functional, organism-based; details: Wistar
[4] = Half life in Sprague-Dawley rat at 1 mg/kg, iv and 3 mg/kg, po; type: ADME, organism-based; details: in vivo
[5] = Equilibrium solubility of the compound in simulated gastric fluid at pH 2 to 10; type: physicochemical
[6] = Half life in Beagle dog at 0.5 mg/kg, po; type: ADME, organism-based, Canis lupus familiaris; parameters: dose 0.5 mg/kg, route oral; details: in vivo
Cytochrome P450 3A4 = Cytochrome P450 3A4 (Homo sapiens, UniProt P08684)
Chain of Cytochrome P450 3A4 (P08684 whole entry): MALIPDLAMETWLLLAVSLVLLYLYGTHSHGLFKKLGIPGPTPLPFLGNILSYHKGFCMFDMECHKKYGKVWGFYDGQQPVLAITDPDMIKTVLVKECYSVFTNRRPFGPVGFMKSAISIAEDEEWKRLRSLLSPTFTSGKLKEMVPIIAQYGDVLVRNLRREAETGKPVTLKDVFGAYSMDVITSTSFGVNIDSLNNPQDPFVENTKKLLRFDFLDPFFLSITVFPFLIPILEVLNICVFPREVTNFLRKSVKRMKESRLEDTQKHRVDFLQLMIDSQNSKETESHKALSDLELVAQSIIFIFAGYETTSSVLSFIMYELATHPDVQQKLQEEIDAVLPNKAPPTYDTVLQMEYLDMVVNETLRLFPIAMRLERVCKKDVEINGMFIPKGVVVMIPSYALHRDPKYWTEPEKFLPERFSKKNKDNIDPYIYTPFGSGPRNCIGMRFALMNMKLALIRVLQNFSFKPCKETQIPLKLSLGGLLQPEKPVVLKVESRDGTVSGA
Description: Inhibition of human CYP3A4 after 10 mins

Cynomolgus monkey = test: Liver blood flow in cynomolgus monkey at 0.125 mg/kg, iv and 0.5 mg/kg, po; type: ADME, organism-based, Macaca fascicularis; details: in vivo
[7] = Tmax in Sprague-Dawley rat at 3 mg/kg, po; type: ADME, organism-based; parameters: dose 3 mg/kg, route oral; details: in vivo
[8] = Plasma protein binding in dog at 1 ug/ml after 6 hrs by equilibrium dialysis method; type: ADME, cell-free, Canis lupus familiaris; details: read-out: PPB (converted)
[9] = Plasma protein binding in rat at 1 ug/ml after 6 hrs by equilibrium dialysis method; type: ADME, cell-free; details: read-out: PPB (converted)
[10] = Chemical stability of the compound; type: physicochemical
Cytochrome P450 2C9 = Cytochrome P450 2C9 (Homo sapiens, UniProt P11712)
Chain of Cytochrome P450 2C9 (P11712 whole entry): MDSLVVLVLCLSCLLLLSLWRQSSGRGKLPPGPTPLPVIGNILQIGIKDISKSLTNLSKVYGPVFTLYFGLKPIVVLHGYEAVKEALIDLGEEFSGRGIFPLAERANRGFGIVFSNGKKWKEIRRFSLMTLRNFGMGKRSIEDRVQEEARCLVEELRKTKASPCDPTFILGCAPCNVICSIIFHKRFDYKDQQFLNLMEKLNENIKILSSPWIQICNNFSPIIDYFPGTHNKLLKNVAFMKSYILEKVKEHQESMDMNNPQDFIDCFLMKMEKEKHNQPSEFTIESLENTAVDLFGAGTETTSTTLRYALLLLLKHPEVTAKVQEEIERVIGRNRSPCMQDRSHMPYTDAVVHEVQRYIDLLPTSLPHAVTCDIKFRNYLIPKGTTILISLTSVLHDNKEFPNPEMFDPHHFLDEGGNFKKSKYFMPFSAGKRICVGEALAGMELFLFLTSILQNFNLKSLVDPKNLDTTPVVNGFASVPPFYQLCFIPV
Description: Inhibition of human CYP2C9 after 10 mins

Compound: CC(C)S(=O)(=O)N[C@H]1Cc2ccc(-c3ccc(F)nc3)cc2C1 [GSK-729327]
- Activity [1]: Not Active
- IC50 (Cytochrome P450 2D6): > 10 µM
- clearance [2]: 1.4 mL/min/kg
- clearance [3]: 3.4 mL/min/kg
- Activity (Rattus norvegicus): Dose-dependent effect
- half-life [4]: 5 h
- solubility thermodynamic [5]: 100 µg/mL (≈ 299 µM)
- half-life [6]: 17 h
- IC50 (Cytochrome P450 3A4): > 10 µM
- LBF (Cynomolgus monkey): 3%
- Tmax [7]: 3 h
- fraction unbound at 6 h, 1 ug/ml [8]: 0.205
- fraction unbound at 6 h, 1 ug/ml [9]: 0.133
- Stability [10]: Stable
- IC50 (Cytochrome P450 2C9): > 10 µM

Source: ChEMBL document CHEMBL1212831, “Discovery of N-[(2S)-5-(6-fluoro-3-pyridinyl)-2,3-dihydro-1H-inden-2-yl]-2-propanesulfonamide, a novel clinical AMPA receptor positive modulator” (J Med Chem, 2010)
